The results in this text go back to US20170327556A1, “CARTILAGE-BINDING FUSION PROTEINS” (Merrimack Pharmaceuticals, Inc., priority 2013, published 2017).

Experiment [1] deals with BXPC-3 cells. As to the kind of experiment: Stimulation of AKT phosphorylation in BXPC-3 cells (pAKT ELISA). Type of experiment: cell-based. As to conditions: 10 min stimulation, doses in M (Table 4), 6x-Histidine-tagged fusion proteins. The protocol:
(§1) Fusion proteins comprising IGF-1 and a cartilage matrix binding domain were prepared as described above. Six fusion proteins were prepared: GF-Fus1 (6x-Histidine-tagged), GF-Fus2(6x-Histidine-tagged), GF-Fus3 (6x-Histidine-tagged), GF-Fus4 (6x-Histidine-tagged), GF-Fus5 (6x-Histidine-tagged), and GF-Fus6 (6x-Histidine-tagged). In order to ensure that the growth factor portion of the fusion protein was active in the fusion proteins, each construct was tested for its ability to stimulate AKT phosphorylation. Wild-type IGF-1 (wtIGF) was included as a control. Bovine chondrocytes were stimulated with a range of doses of each fusion protein, and pAKT levels were measured by ELISA.
For ligand stimulation, chondrocytes were seeded at 200,000 cells/well into 96-well tissue culture plates with 100 μL of chondrocyte culture medium with fetal bovine serum (10% v/v, Life Technologies Cat#16140071). Alternatively, BXPC-3 cells, a pancreatic adenocarcinoma cell line (ATCC® CRL-1687™), were seeded at 30,000 cells/well into 96-well tissue culture plates with 100 μL of BXPC-3 medium (RPMI-1640, e.g., ATCC® 30-2001™), with L-glutamine (2 mM), Penicillin-Streptomycin (1×, Gibco® 15140-122), Fetal Bovine Serum (10% v/v, Life Technologies Cat#16140071)). After 24 hrs, both chondrocytes and BXPC-3 cells were rinsed with 100 μL of sterile PBS (pH=7.4) per well and 100 μl of chondrocyte or BXPC-3 culture medium (without fetal bovine serum) was added to the corresponding cell type. After an additional 24 hrs, cells were stimulated with the doses of fusion proteins set forth in Table 4 by adding 25 μL of fusion protein at a concentration 5 times greater than the concentration listed in Table 4 to the 100 μL of medium already in the wells. After 10 min of stimulation, fusion protein was removed and wells were rinsed in ice cold PBS (pH=7.4). 50 μL/well of cell extraction buffer (Invitrogen cat# FNN0011) was added and incubated with shaking at 4° C. for 30 minutes. Lysates were then frozen at −80° C.
Corning high binding 384 well black ELISA plates (cat#3577) are coated with 30 μL of capture antibody at 4 μg/mL (anti-AKT1 total capture antibody, Upstate, Cat#05-591MG) in PBS (pH=7.4) for 16 hours at room temperature, washed and blocked with […] 2% bovine serum albumin (Sigma Cat# A3294) in PBS (pH=7.4) for 1 hour at room temperature. 20 μL of thawed lysates or recombinant pAKT standards (ten 2-fold serial dilutions of 400 ng recombinant human AKT, active (Upstate, Cat#14-276) in PBS (pH=7.4) containing 50% v/v Cell extraction buffer (Invitrogen Cat#FNN0011), 1% bovine serum albumin (Sigma Cat# A3294), 0.05% Tween20) are applied to the coated plate and incubated for 2 hours at room temperature. After washing 3 times with 100 μL/well of 0.05% Tween-20/PBS (pH=7.4) bound phospho-AKT is detected using Phospho-AKT (Ser473)(587F11)-biotinylated (Cell Signaling, Cat#5102), streptavidin-HRP (R&D Systems Cat# DY998, Part #890803), SuperSignal ELISA PicoChemiluminescent Substrate (Thermo Scientific Cat#37069), using a luminometer to detect light emissions at 425 nm.
A general note: ELISA stands for enzyme-linked immunosorbent assay.

The nature of experiment [2]: ELISA binding of fusion proteins to chondroitin sulfate coated plates. Particulars: 6x-Histidine-tagged proteins, FIG. 1B. The protocol:
(§2) The specificity of binding of fusion proteins to the polysaccharides heparan sulfate and chondroitin sulfate may be determined by measuring the ability of the proteins to bind polysaccharides coated on an ELISA plate. Heparin Binding Plates (BD Biosciences) are coated with 50 μl of 2-10 μg/mL concentration of heparan sulfate or chondroitin sulfate (Sigma-Aldrich®) and incubated overnight at room temperature. Plates are washed with PBS and blocked with 250 μl of 0.2% gelatin in PBS for 1 hour at 37 C. Plates are then washed with PBS and tapped dry. 50 μl of protein in a dilution series is added to the wells and incubated for 2 hours at 37 C. The protein dilution series starts from 100 nM and includes ten additional three-fold dilutions in PBS, 0.2% gelatin and one blank (PBS, 0.2% gelatin only). After the plates are washed in PBS, 50 μl of anti-human IGF-1 (Abcam) at 1:250 in PBST is added and the plates are incubated for 1 hour rotating at room temperature. Plates are washed with PBST and 100 μl of 1:1000 anti-Rabbit-HRP (Cell Signaling Technology®) in PBST is added to each well and the plate is incubated for 1 hour at room temperature. […] The absorbance is measured at 450 nm and the resulting data is analyzed using GraphPad Prism® (GraphPad Software, San Diego, Calif.). […]

Experiment [3] in a line: ELISA binding of fusion proteins to heparan sulfate coated plates. As to conditions: 6x-Histidine-tagged proteins, FIG. 1A. The protocol: as §2
The test system of experiment [4] is AKT phosphorylation in bovine chondrocytes. Put plainly: Stimulation of AKT phosphorylation in primary bovine chondrocytes (pAKT ELISA). Particulars: 10 min stimulation, doses in M (Table 4), 6x-Histidine-tagged fusion proteins. Type of experiment: cell-based. The protocol:
as §1
Bovine chondrocytes are isolated from the femoral chondyles of 2-4 week old bovine calves. Knee joints are mounted by removing all tissue surrounding the femur, removing the femoral head with a bone saw or hack saw, and clamping in a tissue vice. Joints are aseptically opened, removing the patella, tibia and fibula. Using a scalpel, cartilage is sliced off the femoral chondyles and placed in sterile PBS (pH=7.4) containing penicillin-streptomycin (1×, Gibco 15140-122). PBS is subsequently removed and pronase solution (50 mL per 5 g of tissue), consisting of high glucose DMEM (Life Technologies Cat#11965-092), fetal bovine serum (10% v/v, Life Technologies Cat#16140071), HEPES (100 mM, Gibco 15630-080), non-essential amino acids (1×, Sigma M7145), penicillin-streptomycin (1×, Gibco 15140-122), proline (400 μM, Sigma P5607-256), Protease Type XIV (2 mg/mL, Sigma Cat# P5147), is added for 1 hour with stirring. After rinsing twice with sterile PBS (pH=7.4), collagenase solution (50 mL per 5 g of tissue), consisting of high glucose DMEM (Life Technologies Cat#11965-092), fetal bovine serum (10% v/v, Life Technologies Cat#16140071), HEPES (100 mM, Gibco 15630-080), NEAA(1×, Sigma M7145), Penicillin-Streptomycin (1×, Gibco 15140-122), 0.25 mg/mL Collagenase P (Roche Cat#11 249 002 001), is added for 18 hours with stirring. Cell are strained, washed, and resuspended in chondrocyte culture medium (low glucose DMEM (1× Gibco 11885-084), Penicillin-Streptomycin (1×, Gibco 15140-122), non-essential amino acids (1×, Sigma M7145), and HEPES (100 mM, Gibco 15630-080)) with fetal bovine serum (10% v/v, Life Technologies Cat#16140071).
For ligand stimulation, chondrocytes were seeded at 200,000 cells/well into 96-well tissue culture plates with 100 μL of chondrocyte culture medium with fetal bovine serum (10% v/v, Life Technologies Cat#16140071). […]

Experiment [5] relates to bovine cartilage explants. Put plainly: In vitro joint disease model (IL-1), explanted bovine cartilage: ^35S-sulfate incorporation. In kind it is cell-based. Particulars: supplied in every medium change for 8 or 12 days, IL-1, final 48 hrs, versus Disease control. An excerpt:
(§3) Bovine cartilage explants (3 mm diameter, 1.2 mm thick) are harvested from the femoral patellar groove of 2-4 week old bovine calves. Knee joints are mounted by removing all tissue surrounding the femur, removing the femoral head with a bone saw or hack saw, and clamping in a tissue vice. Joints are aseptically opened, removing the patella, tibia and fibula. Using a 3 mm diameter disposable biopsy punch, approximately 80×3 mm diameter full thickness cartilage cores are punched from the femoral-patellar groove. A sterile knife is used to slice the cores at the cartilage-bone interface. Cores are then inserted into 3 mm diameter holes in a 1.2 mm thick sterile stainless steel plate and sliced flush with the plate using sterile razor blades to remove the excess core length, resulting in 3 mm diameter, 1.2 mm thick cartilage explants with the superficial zone cartilage intact.
(§4) Explants are cultured in 96-well plates in 300 μL of medium consisting of low glucose DMEM (1× Gibco 11885-084), Penicillin-Streptomycin (1×, Gibco 15140-122), ascorbic acid (20 μg/mL, Sigma A4403), proline (400 μM, Sigma P5607-256), non-essential amino acids (1×, Sigma M7145), and HEPES (100 mM, Gibco 15630-080). Explants from three animals (n=2-3 per animal) are used in each treatment condition for a total explant number of 8-9 per condition. Medium is changed every 2 days. On days 6 and 10, the medium is supplemented with 5 μCi/mL of ^35S-sodium sulfate (Perkin Elmer NEX041H001MC, 1 mCi).
(§5) Timepoints are taken at day 8 and 12: explant tissue is washed four times for 30 min each (2 hr total) in 1 mM unlabeled sodium sulfate in PBS. Each explant is weighed wet and frozen at −20° C. until digestion. Tissue digestion was performed with Proteinase K (Roche cat #3115879001) and each explant is digested in 1 mL 100 μg/mL Proteinase K in 50 mM Tris-HCL, 1 mM Calcium Chloride pH=8.0 buffer at 60° C. overnight. Measurement of sGAG content and DNA content is performed using standard assay methods such as those described in Hoemann, 2004, Methods in Molecular Medicine: Cartilage and Osteoarthritis. Totowa, N.J.: Humana Press Inc.; p. 127-52. ^35S-sulfate content of the digested cartilage explants was quantified by mixing 20 μL of digest with 250 μL of scintillation fluid (Perkin Elmer cat #1200-439) and counting with a WALLAC 1450 MICROBETA TRILUX scintillation counter.
(§6) Treatments were given at the following concentrations: wtIGF-1 13.3 nM=100 ng/mL (IGF-1 R&D systems 291-G1); GF-Fus1 (6x-Histidine tagged) 13.3 nM=135 ng/mL; GF-Fus2 (6x-Histidine tagged) 13.3 nM=140 ng/mL; and GF-Fus3 (6x-Histidine tagged)13.3 nM=181 ng/mL. All treatments included IL-1 and were given for either 4 days or the entire culture duration. The outcomes measured were ^35S-sulfate incorporation, DNA content, and sGAG content of plug at endpoint, and sGAG released to media for all media changes. Controls were either no treatment (Healthy) or IL-1 alone at 1 ng/mL (Disease).
(§7) FIG. 4 depicts a graph of cartilage matrix loss as measured by the cumulative percentage of total sGAG lost to the culture medium against time (days). Percentage loss is calculated by dividing the cumulative sGAG in the culture medium by the total sGAG present in the medium over the culture period plus the sGAG remaining in the explant at the end of culture. Cartilage matrix loss was reduced by each IGF fusion protein relative to the disease control at a level similar to wild-type IGF. New cartilage matrix synthesis (i.e. sulfated proteoglycan synthesis is measured by ^35S-Sulfate incorporation) during the final 48 hrs of cultures terminated at day 8 and day 12 is shown in FIGS. 5A and 5B, respectively. Cartilage matrix synthesis was increased compared to disease control by all fusion proteins (GF-Fus1, GF-Fus2, and GF-Fus3) and wild-type IGF when the fusion proteins were supplied in every medium change for the entire culture duration of 8 and 12 days (black bars). […]

Experiment [6] relates to bovine cartilage explants. Put plainly: In vitro joint disease model (IL-1), explanted bovine cartilage: sGAG loss. Type of experiment: cell-based. Particulars: 13.3 nM supplied in every medium change, IL-1, relative to Disease control.
Source text: as §3, §4, §5, §6, §7

“GF-Fus4: IGF-1(LR3) fused to Collagen IX HB domain”: the “logEC50 Mean” value in experiment [1] is −9.133. For the same substance, in experiment [2], the “binding to chondroitin sulfate” value is “did not bind”. In addition, the “binding to heparan sulfate” value in experiment [3] is “did not bind”.

Take “GF-Fus2: N-terminal Prelp HB domain fused to wild-type IGF”: in experiment [4], the “logEC50 Mean” value is −8.830. In addition, the “cartilage matrix synthesis (^35S-sulfate incorporation)” value in experiment [5] is on record as “increased”. For the same substance, the “cartilage matrix loss (% sGAG loss)” value in experiment [6] is recorded as “reduced”.
